Data taken from patent US11780845B2 (Relay Therapeutics, Inc., priority 2019, dated 2023).

Legend:
FGFR2 = FGFR2 (Homo sapiens (Human), UniProt P21802); experiment: Biochemical FGFR2 Caliper assay
SNU-16 = experiment: Cell SNU-16 assay; type: cell-based
[1] = Homo sapiens, SNU-16, SNU-16 cells

Sequence of FGFR2 (P21802 22-821): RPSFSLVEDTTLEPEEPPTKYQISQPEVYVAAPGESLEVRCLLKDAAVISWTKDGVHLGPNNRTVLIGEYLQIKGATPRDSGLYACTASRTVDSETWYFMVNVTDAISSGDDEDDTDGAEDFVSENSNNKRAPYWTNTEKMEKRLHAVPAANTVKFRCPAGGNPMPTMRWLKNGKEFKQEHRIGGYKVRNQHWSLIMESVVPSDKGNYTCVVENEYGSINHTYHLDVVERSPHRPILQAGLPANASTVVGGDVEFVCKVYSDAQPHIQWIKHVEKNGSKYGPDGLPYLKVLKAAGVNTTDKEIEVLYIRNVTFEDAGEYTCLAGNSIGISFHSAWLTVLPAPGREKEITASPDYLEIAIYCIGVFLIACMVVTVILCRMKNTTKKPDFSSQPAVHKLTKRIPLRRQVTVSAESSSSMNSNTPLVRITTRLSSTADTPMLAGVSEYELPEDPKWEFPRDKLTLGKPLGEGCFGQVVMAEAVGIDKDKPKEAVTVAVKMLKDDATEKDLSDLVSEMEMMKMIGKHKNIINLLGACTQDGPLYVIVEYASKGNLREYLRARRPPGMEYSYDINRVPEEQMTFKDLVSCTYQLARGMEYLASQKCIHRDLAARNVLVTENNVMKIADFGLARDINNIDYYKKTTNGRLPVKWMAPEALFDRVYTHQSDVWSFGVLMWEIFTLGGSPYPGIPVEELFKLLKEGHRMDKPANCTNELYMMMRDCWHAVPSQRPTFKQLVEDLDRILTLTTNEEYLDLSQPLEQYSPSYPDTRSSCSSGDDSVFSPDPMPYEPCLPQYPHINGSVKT

IC50 (FGFR2) [nM] | IC50 (SNU-16; [1]) [nM] | IC50 (SNU-16; SNU-16 cells) [nM] | SMILES
< 100 | ≤ 100 |  | C=C(C)C(=O)Nc1ccc(-c2c(-c3ccc(Oc4nccc(C)n4)c(F)c3)c3c(O)ncnc3n2C)cc1 [Example 1057]
1000 to 100000 | 1000 to 100000 |  | C=C(C)C(=O)Nc1ccc(-c2c(C3=CC[C@H](C(=O)N4CCC[C@@H]4C4CC4)CC3)c3c(N)ncnc3n2C)cc1 [Example 1058]
1000 to 100000 | 1000 to 100000 |  | C=C(C)C(=O)Nc1ccc(-c2c(C3=CC[C@H](C(=O)N4CCC[C@H]4C4CC4)CC3)c3c(N)ncnc3n2C)cc1 [Example 1059]
1000 to 100000 | 1000 to 100000 |  | C=C1CCN(c2ccc(-c3c(-c4ccc(Oc5nccc(C)n5)cc4)c4c(N)ncnc4n3C)cc2)C1=O [Example 1060]
< 100 |  | ≤ 100 | CC1=CCN(c2ccc(-c3c(-c4ccc(Oc5nccc(C)n5)cc4)c4c(N)ncnc4n3C)cc2)C1=O [Example 1061]
1000 to 100000 | 1000 to 100000 |  | C#Cc1ncc(-c2c(-c3ccc(Oc4nccc(C)n4)cc3)c3c(N)ncnc3n2C)c(C)n1 [Example 1062]
< 100 | ≤ 100 |  | C=Cc1ncc(-c2c(-c3ccc(Oc4nccc(C)n4)cc3)c3c(N)ncnc3n2C)c(C)n1 [Example 1063]
< 100 | ≤ 100 |  | C=C(C)C(=O)Nc1ccc(-c2c(-c3ccc(Oc4nccc(C)n4)cc3)c3c(N)ncnc3n2C)c(Cl)c1C [Example 1064]
250 to 1000 | 250 to 1000 |  | C=C(C)C(=O)Nc1cc(-c2c(-c3ccc(Oc4nccc(C)n4)cc3)c3c(N)ncnc3n2C)n(C)n1 [Example 1065]
< 100 | ≤ 100 |  | C=C(C)C(=O)Nc1cc(C)c(-c2c(-c3ccc(Oc4nccc(C)n4)cc3)c3c(N)ncnc3n2C)cc1F [Example 1066]
< 100 | ≤ 100 |  | C#Cc1ccc(-c2c(-c3ccc(Oc4nccc(C)n4)cc3)c3c(N)ncnc3n2C)cn1 [Example 1067]
< 100 | ≤ 100 |  | C=C(C)C(=O)Nc1ccc(-c2c(-c3ccc(Oc4nccc(C)n4)c(F)c3)c3c(C)ncnc3n2C)cc1 [Example 1068]
250 to 1000 | 250 to 1000 |  | C=C(C)C(=O)Nc1cc(Cl)c(-c2c(-c3ccc(Oc4nccc(C)n4)cc3)c3c(N)ncnc3n2C)cc1C [Example 1069]
< 100 | ≤ 100 |  | CC#Cc1ncc(-c2c(-c3ccc(Oc4nccc(C)n4)cc3)c3c(N)ncnc3n2C)cn1 [Example 1070]
250 to 1000 | ≤ 100 |  | C=C(C)C(=O)Nc1ccc(-c2c(-c3ccc(Oc4nccc(C)n4)cc3)c3c(N)ncnc3n2C)c(C)c1Cl [Example 1071]
250 to 1000 | 250 to 1000 |  | C=C(C)C(=O)Nc1cnn(C)c1-c1c(-c2ccc(Oc3nccc(C)n3)cc2)c2c(N)ncnc2n1C [Example 1072]
1000 to 100000 | 1000 to 100000 |  | C#Cc1cc(C)c(-c2c(-c3ccc(Oc4nccc(C)n4)cc3)c3c(N)ncnc3n2C)cn1 [Example 1073]
< 100 | ≤ 100 |  | C=CC(=O)Nc1ccc(-c2c(-c3ccc(C(=O)NC4CCC4)c(OC)c3)c3c(N)ncnc3n2C)cc1 [Example 1074]
< 100 | ≤ 100 |  | C=C1CCN(c2ccc(-c3c(-c4ccc(Oc5nccc(C)n5)cc4)c4c(N)ncnc4n3C)cn2)C1=O [Example 1077]
< 100 | ≤ 100 |  | CC1=CCN(c2ccc(-c3c(-c4ccc(Oc5nccc(C)n5)cc4)c4c(N)ncnc4n3C)cn2)C1=O [Example 1078]

IC50 (FGFR2) [nM] | IC50 (SNU-16; [1]) [nM] | IC50 (SNU-16; SNU-16 cells) [nM] | SMILES
< 100 | ≤ 100 |  | C=C(C)C(=O)Nc1cccc(-c2[nH]c3ncnc(N)c3c2-c2ccc(C(=O)NCC3(F)COC3)cc2)c1 [Example 1079]
1000 to 100000 | 1000 to 100000 |  | C=CC(=O)N1CC=C(c2cccc(-c3c(-c4ccc(Oc5cccc(C)n5)cc4)c4c(N)ncnc4n3C)c2)C1 [Example 1080]
250 to 1000 | 250 to 1000 |  | C#Cc1ncc(-c2c(-c3ccc(Oc4nccc(C)n4)cc3)c3c(N)ncnc3n2C)cc1F [Example 1081]
< 100 | ≤ 100 |  | C=CC(=O)Nc1ccccc1-c1c(-c2ccc(Oc3cccc(C)n3)cc2)c2c(N)ncnc2n1C [Example 1082]
250 to 1000 | 1000 to 100000 |  | C=CC(=O)Nc1ccc(-c2c(-c3ccc(Oc4nccc(C)n4)c(C)c3)c3c(N)ncnc3n2C)c(C)c1 [Example 1083]
< 100 | ≤ 100 |  | Cc1ccnc(Oc2ccc(-c3c(-c4ccc(N5C(=O)C=CC5=O)cc4)n(C)c4ncnc(N)c34)cc2)n1 [Example 1084]
1000 to 100000 | 1000 to 100000 |  | C#Cc1ccc(-c2c(-c3ccc(Oc4nccc(C)n4)cc3)c3c(N)ncnc3n2C)c(C)n1 [Example 1085]
< 100 | ≤ 100 |  | C=C(C)C(=O)Nc1cnc(-c2c(-c3ccc(Oc4cccc(C)n4)c(F)c3)c3c(N)ncnc3n2C)c(F)c1 [Example 1086]
< 100 | ≤ 100 |  | C=C1CCCN(c2ccc(-c3c(-c4ccc(Oc5nccc(C)n5)cc4)c4c(N)ncnc4n3C)cc2)C1=O [Example 1087]
1000 to 100000 | 250 to 1000 |  | C=C1C(=O)N(c2ccc(-c3c(-c4ccc(Oc5nccc(C)n5)cc4)c4c(N)ncnc4n3C)cc2)CC1(C)C [Example 1088]
1000 to 100000 | 1000 to 100000 |  | C=C(C)C(=O)Nc1ccc(-c2c(-c3ccc(Oc4nccc(C)n4)cc3)c3c(N)ncnc3n2C)c(Cl)c1F [Example 1089]
< 100 | ≤ 100 |  | CC1=CCCN(c2ccc(-c3c(-c4ccc(Oc5nccc(C)n5)cc4)c4c(N)ncnc4n3C)cc2)C1=O [Example 1090]
1000 to 100000 | 1000 to 100000 |  | C=C(C)C(=O)Nc1cc(C)c(-c2c(-c3ccc(Oc4cccc(C)n4)c(F)c3)c3c(N)ncnc3n2C)cn1 [Example 1091]
< 100 | ≤ 100 |  | C=CC(=O)Nc1ccc(-c2c(-c3ccc(Oc4nccc(C)n4)cc3)c3c(N)ncnc3n2C)c(C)c1 [Example 1092]
< 100 | ≤ 100 |  | C=C(C)C(=O)Nc1ccc(-c2c(-c3ccc(Oc4nccc(C)n4)c(F)c3)c3c(C)ncnc3n2C)c(Cl)c1 [Example 1093]
< 100 | ≤ 100 |  | C=CC(=O)Nc1ccc(-c2c(-c3ccc(Oc4nccc(C)n4)c(F)c3)c3c(C)ncnc3n2C)c(Cl)c1 [Example 1094]
< 100 | ≤ 100 |  | C=C(C)C(=O)Nc1cnc(-c2c(-c3ccc(Oc4cccc(C)n4)c(F)c3)c3c(N)ncnc3n2C)c(C)c1 [Example 1095]
< 100 | ≤ 100 |  | C=C1CCN(c2ccc(-c3c(-c4ccc(Oc5nccc(C)n5)cc4)c4c(N)ncnc4n3C)c(C)c2)C1=O [Example 1096]
< 100 | ≤ 100 |  | C=C(C)C(=O)Nc1cc(C)c(-c2c(-c3ccc(Oc4nccc(C)n4)cc3)c3c(N)ncnc3n2C)c(F)c1 [Example 1097]
< 100 | ≤ 100 |  | C=CC(=O)Nc1cc(-c2c(-c3ccc(Oc4cccc(C)n4)cc3)c3c(N)ncnc3n2C)n(C)n1 [Example 1098]

IC50 (FGFR2) [nM] | IC50 (SNU-16; [1]) [nM] | IC50 (SNU-16; SNU-16 cells) [nM] | SMILES
< 100 | ≤ 100 |  | C=C(C)C(=O)Nc1ccc(-c2c(-c3ccc(Oc4cccc(C)n4)c(F)c3)c3c(N)ncnc3n2C)c(C)n1 [Example 1103]
< 100 | ≤ 100 |  | C=CC(=O)Nc1ccc(-c2c(-c3ccc(Oc4nccc(C)n4)cc3)c3c(C)ncnc3n2C)c(C)c1 [Example 1104]
< 100 | ≤ 100 |  | C=CC(=O)Nc1ccc(-c2c(-c3ccc(Oc4nccc(C)n4)c(F)c3)c3c(C)ncnc3n2C)c(C)c1 [Example 1105]
< 100 | ≤ 100 |  | C=CC(=O)Nc1cc(-c2c(-c3ccc(Oc4nccc(C)n4)cc3)c3c(N)ncnc3n2C)n(C)n1 [Example 1108]
< 100 | ≤ 100 |  | C=C1CN(c2ccc(-c3c(-c4ccc(Oc5nccc(C)n5)cc4)c4c(N)ncnc4n3C)cc2)C1=O [Example 1109]
< 100 | ≤ 100 |  | C=C1CCN(c2ccc(-c3c(-c4ccc(Oc5nccc(C)n5)c(F)c4)c4c(N)ncnc4n3C)cc2)C1=O [Example 1110]
< 100 | ≤ 100 |  | C#Cc1cc(C)c(-c2c(C3=CC[C@H](C(=O)N4CCCC4)CC3)c3c(N)ncnc3n2C)cn1 [Example 1111]
< 100 | ≤ 100 |  | C=CC(=O)Nc1ccc(-c2c(-c3ccc(Oc4nccc(C)n4)c(F)c3)c3c(N)ncnc3n2C)cc1 [Example 1112]
< 100 | ≤ 100 |  | C=C1C[C@@H](C)N(c2ccc(-c3c(-c4ccc(Oc5nccc(C)n5)cc4)c4c(N)ncnc4n3C)cc2)C1=O [Example 1113]
250 to 1000 | ≤ 100 |  | CC1=C[C@@H](C)N(c2ccc(-c3c(-c4ccc(Oc5nccc(C)n5)cc4)c4c(N)ncnc4n3C)cc2)C1=O [Example 1114]
1000 to 100000 | 1000 to 100000 |  | C=C(C)C(=O)Nc1ccc(-c2c(C3=CC[C@@H](S(=O)(=O)N4CCCC4)CC3)c3c(N)ncnc3n2C)c(C)c1 [Example 1115]
100 to 250 | ≤ 100 |  | C=C(C)C(=O)Nc1ccc(-c2c(C3=CC[C@H](S(=O)(=O)N4CCCC4)CC3)c3c(N)ncnc3n2C)c(C)c1 [Example 1116]
100 to 250 |  | ≤ 100 | C#Cc1ncc(-c2c(-c3ccc(Oc4nccc(C)n4)cc3)c3c(N)ncnc3n2C)cn1 [Example 1117]
< 100 | ≤ 100 |  | CC1=C[C@H](C)N(c2ccc(-c3c(-c4ccc(Oc5nccc(C)n5)cc4)c4c(N)ncnc4n3C)cc2)C1=O [Example 1118]
1000 to 100000 |  | 250 to 1000 | C#Cc1cc(C)c(-c2c(-c3ccc(Oc4nccc(C)n4)c(F)c3)c3c(N)ncnc3n2C)cn1 [Example 1119]
< 100 | ≤ 100 |  | C=CC(=O)Nc1ccc(-c2c(-c3ccc(O)cc3)c3c(N)ncnc3n2C)cc1 [Example 1120]
< 100 | ≤ 100 |  | Cc1cccc(Oc2ccc(-c3c(-c4cccc(NC#N)c4)n(C)c4ncnc(N)c34)cc2)n1 [Example 1121]
1000 to 100000 | 250 to 1000 |  | C=C(C)C(=O)Nc1ccc(-c2c(-c3ccc(-c4nnc(C)o4)cc3)c3c(N)ncnc3n2C)cc1 [Example 1123]
1000 to 100000 | 250 to 1000 |  | C=C(C)C(=O)Nc1ccc(-c2c(-c3ccc(-c4ccn(C)n4)nc3)c3c(N)ncnc3n2C)cc1 [Example 1124]
